According to PubChem BioAssay (NCI):
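Step 1: Grow cells in 96-well plates. Step 2: Expose to compound for 48 hours at 5 concentrations. Step 3: Interpolate endpoints linearly; if unreached, use highest concentration. TGI is the concentration that stops growth completely.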

How the values were obtained:
Assay in all cases: NCI anticancer screen, dose series, 48 h
DLD-1 colon = test system: DLD-1 colon
NCI-H226 lung = test system: NCI-H226 lung
SW-620 colon = test system: SW-620 colon
A498 renal = test system: A498 renal
HCT-15 colon = test system: HCT-15 colon
SK-MEL-2 melanoma = test system: SK-MEL-2 melanoma
OVCAR-4 ovarian = test system: OVCAR-4 ovarian
HOP-62 NSCLC = test system: HOP-62 NSCLC
HL-60(TB) leukemia = test system: HL-60(TB) leukemia
OVCAR-8 ovarian = test system: OVCAR-8 ovarian
CAKI-1 renal = test system: CAKI-1 renal
786-0 renal = test system: 786-0 renal
KM12 colon = test system: KM12 colon
SF-295 CNS = test system: SF-295 CNS
SK-MEL-28 melanoma = test system: SK-MEL-28 melanoma
HOP-92 NSCLC = test system: HOP-92 NSCLC
UACC-62 melanoma = test system: UACC-62 melanoma
HCT-116 colon = test system: HCT-116 colon
SN12C renal = test system: SN12C renal
MCF7 breast = test system: MCF7 breast

SMILES	TGI (DLD-1 colon)	TGI (NCI-H226 lung)	TGI (SW-620 colon)	TGI (A498 renal)	TGI (HCT-15 colon)	TGI (SK-MEL-2 melanoma)	TGI (OVCAR-4 ovarian)	TGI (HOP-62 NSCLC)	TGI (HL-60(TB) leukemia)	TGI (OVCAR-8 ovarian)	TGI (CAKI-1 renal)	TGI (786-0 renal)	TGI (KM12 colon)	TGI (SF-295 CNS)	TGI (SK-MEL-28 melanoma)	TGI (HOP-92 NSCLC)	TGI (UACC-62 melanoma)	TGI (HCT-116 colon)	TGI (SN12C renal)	TGI (MCF7 breast)
COC1=CC(=O)C2C(C1=O)C(c1ccc(Cl)cc1)[C@@H]2C (some centres undefined)	70.5 µM	81.8 µM	74.9 µM	> 100 µM	31.9 µM	> 100 µM	> 100 µM	> 100 µM	55.7 µM	67.4 µM	> 100 µM	57.2 µM	> 100 µM	> 100 µM	> 100 µM	54.8 µM	63 µM	33.7 µM	–	–
CCOC(=O)c1c2ccc(/C=C/c3ccccc3)ccc-2c(C(=O)OCC)c1N	> 100 µM	> 100 µM	> 100 µM	99.8 µM	> 100 µM	> 100 µM	> 100 µM	–	> 100 µM	–	> 100 µM	> 100 µM	> 100 µM	> 100 µM	> 100 µM	> 100 µM	> 100 µM	> 100 µM	–	–
C[N+]1(C)C[C@@H](O)C[C@@H]1C(=O)[O-]	> 100 µM	> 100 µM	> 100 µM	> 100 µM	> 100 µM	> 100 µM	> 100 µM	> 100 µM	> 100 µM	> 100 µM	–	> 100 µM	> 100 µM	> 100 µM	> 100 µM	> 100 µM	> 100 µM	> 100 µM	> 100 µM	–
CSc1nc2nc(C(O)C(O)C(O)CO)cnc2c(=O)[nH]1 (centres undefined)	> 100 µM	> 100 µM	> 100 µM	> 100 µM	> 100 µM	> 100 µM	–	> 100 µM	> 100 µM	> 100 µM	> 100 µM	> 100 µM	> 100 µM	> 100 µM	> 100 µM	–	> 100 µM	> 100 µM	> 100 µM	–
C=C(C)CC(C)(c1cc2ccccc2n1C)N1CCOCC1 (centres undefined)	> 100 µM	> 100 µM	> 100 µM	–	> 100 µM	> 100 µM	> 100 µM	> 100 µM	> 100 µM	> 100 µM	> 100 µM	> 100 µM	> 100 µM	> 100 µM	> 100 µM	> 100 µM	> 100 µM	> 100 µM	> 100 µM	–
CCOC(=O)C1=C(c2ccccc2)N(C(C)=O)Cc2ccccc21	> 100 µM	50.5 µM	> 100 µM	–	> 100 µM	38.2 µM	> 100 µM	44.3 µM	37.5 µM	> 100 µM	–	> 100 µM	30.3 µM	37.8 µM	36.6 µM	20.7 µM	25.5 µM	30.2 µM	77.1 µM	–
Cc1nc2ccc(N)cc2[nH]c1=O	> 100 µM	–	> 100 µM	> 100 µM	> 100 µM	> 100 µM	> 100 µM	> 100 µM	> 100 µM	> 100 µM	> 100 µM	> 100 µM	> 100 µM	> 100 µM	–	> 100 µM	> 100 µM	> 100 µM	–	–
O=C(O)COc1ccc(C(=O)/C(SS/C(C(=O)c2ccc(OCC(=O)O)c(Cl)c2Cl)=C2\C=C(c3ccccc3Cl)SS2)=C2/C=C(c3ccccc3Cl)SS2)c(Cl)c1Cl	> 65.4 µM	47.3 µM	> 56.5 µM	88.7 µM	> 54.6 µM	50 µM	57.1 µM	> 100 µM	7.01 µM	> 100 µM	> 94.7 µM	36.7 µM	> 71.4 µM	> 100 µM	> 100 µM	24.3 µM	69.5 µM	> 58.7 µM	> 100 µM	–
N#CC1CCCCC1NC1(C#N)CCCCC1 (centres undefined)	> 100 µM	> 100 µM	> 100 µM	> 100 µM	> 100 µM	> 100 µM	–	> 100 µM	> 100 µM	> 100 µM	> 100 µM	> 100 µM	> 100 µM	> 100 µM	> 100 µM	–	> 100 µM	–	> 100 µM	–
CC(=O)NC(CCCNC(=O)OCc1ccccc1)C(=O)O (centres undefined)	> 100 µM	> 100 µM	> 100 µM	> 100 µM	> 100 µM	> 100 µM	> 100 µM	> 100 µM	–	> 100 µM	> 100 µM	> 100 µM	> 100 µM	> 100 µM	> 100 µM	> 100 µM	> 100 µM	> 100 µM	> 100 µM	–
CCOC(=O)CC(NCc1ccc(N=Cc2nc3ccc(C(F)(F)F)cc3nc2-c2ccccc2)cc1)C(=O)OCC (centres undefined)	> 100 µM	> 100 µM	> 100 µM	> 100 µM	> 100 µM	> 73.3 µM	> 100 µM	> 81.7 µM	> 100 µM	> 100 µM	> 100 µM	> 100 µM	> 100 µM	> 100 µM	> 100 µM	> 100 µM	68.3 µM	> 100 µM	> 100 µM	–
COC(=O)C1(O)c2ccccc2N=C2C1CCN2C (centres undefined)	> 100 µM	–	> 100 µM	> 100 µM	> 100 µM	> 100 µM	> 100 µM	> 100 µM	> 100 µM	> 100 µM	> 100 µM	> 100 µM	> 100 µM	> 100 µM	> 100 µM	> 100 µM	> 100 µM	> 100 µM	> 100 µM	–
COC(=O)C(/C(=N/N)C(=O)Nc1cccc(O)c1)c1nc2ccccc2[nH]c1=O (centres undefined)	–	> 100 µM	> 100 µM	> 100 µM	> 100 µM	> 100 µM	> 100 µM	> 100 µM	> 100 µM	> 100 µM	> 100 µM	> 100 µM	> 100 µM	> 100 µM	> 100 µM	> 100 µM	> 100 µM	> 100 µM	> 100 µM	> 100 µM
